Source: patent publication US12194198B2, “High strength porous materials for controlled release” (Access Vascular, Inc., priority 2018, dated 2025)

How the values were obtained:
A. baumannii = conditions: cited from earlier work
P. aeruginosa = conditions: cited from earlier work
[1] = Chlorhexidine free base saturation in methanol; assay type: physicochemical; conditions: CHX/methanol solutions
Text: Solution was made with […] chlorhexidine free base (CHX) in methanol. CHX/methanol solutions appeared to reach saturation around 1000 ppm. Serial dilutions were made from the solution, where the UV-Vis would become overloaded when concentrations were above 200 ppm. In order to avoid overloading the UV-Vis, concentrations below 100 ppm were used to collect absorbance values. FIG. 8 and Table 6 show the absorbance data collected from the chlorhexidine free base standards.

- saturation concentration in methanol [1]: around 1000 ppm
Structure (SMILES): [H]/N=C(\N/C(=N/[H])NCCCCCCNC(=N)NC(=N)Nc1ccc(Cl)cc1)Nc1ccc(Cl)cc1 [chlorhexidine]
- largest known minimum inhibitory concentration (MIC) (A. baumannii): 64 µg/mL
- largest known minimum bactericidal concentration (MBC) (P. aeruginosa): 128 µg/mL
